{
  "source": "paper PMC9821308",
  "about": "“The Inhibitory Properties of a Novel, Selective LMTK3 Kinase Inhibitor” (International Journal of Molecular Sciences, 2023)",
  "key": {"[1]": {"target": "PIM1 (Homo sapiens, UniProt P11309)", "test": "KINOMEscan active site-directed competition binding at […]; also radioactive filter binding assay at […]"}, "[2]": {"target": "T1, LMTK3 (lemur tyrosine kinase 3) (Homo sapiens, UniProt Q96Q04)", "T1 construct": "LMTK3cat (LMTK3 kinase domain)", "T1 sequence (Q96Q04 133-411 limits assumed)": "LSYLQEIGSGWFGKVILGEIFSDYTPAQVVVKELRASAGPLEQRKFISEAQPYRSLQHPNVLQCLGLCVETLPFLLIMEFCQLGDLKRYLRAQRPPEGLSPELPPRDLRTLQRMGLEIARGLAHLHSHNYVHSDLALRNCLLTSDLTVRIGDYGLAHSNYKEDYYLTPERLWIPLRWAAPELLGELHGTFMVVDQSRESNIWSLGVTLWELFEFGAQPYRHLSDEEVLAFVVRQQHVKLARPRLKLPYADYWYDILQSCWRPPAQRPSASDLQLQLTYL", "test": "microscale thermophoresis; also […] kinase assay on HSP27 (IC50 approximately […])", "format": "binding"}, "[3]": {"target": "PDGFRA (Homo sapiens, UniProt P16234)", "test": "KINOMEscan active site-directed competition binding at […]; also radioactive filter binding assay at […]"}, "[4]": {"target": "T2, TRKA (Homo sapiens, UniProt P04629)", "T2 construct": "gene NTRK1", "test": "KINOMEscan active site-directed competition binding at […] ([…]); also radioactive filter binding assay at […]"}, "[5]": {"target": "MKNK2 (Homo sapiens, UniProt Q9HBH9)", "test": "KINOMEscan active site-directed competition binding at […]; also radioactive filter binding assay at […]"}, "[6]": {"target": "MKNK1 (Homo sapiens, UniProt Q9BUB5)", "test": "KINOMEscan active site-directed competition binding at […]; also radioactive filter binding assay at […]"}},
  "data": [
    {"compound": "Clc1ccc(-c2cnc3sc(NCc4cccnc4)nn23)cc1", "note": "[C36]", "values": [
      {"measurement": "KINOMEscan active site-directed competition binding at 5 μM; also radioactive fi", "setting": "[1]", "result": "overlap of kinases targeted by C36 that have been identified via both assays (namely PIM1, TRKA, PDGFRA, MKNK1, MKNK2)"},
      {"measurement": "Kd", "setting": "[2]", "result": "1.87 ± 0.2", "unit": "µM"},
      {"measurement": "KINOMEscan active site-directed competition binding at 5 μM; also radioactive fi", "setting": "[3]", "result": "overlap of kinases targeted by C36 that have been identified via both assays (namely PIM1, TRKA, PDGFRA, MKNK1, MKNK2)"},
      {"measurement": "KINOMEscan active site-directed competition binding at 5 μM (>90%); also radioac", "setting": "[4]", "result": "overlap of kinases targeted by C36 that have been identified via both assays (namely PIM1, TRKA, PDGFRA, MKNK1, MKNK2)"},
      {"measurement": "KINOMEscan active site-directed competition binding at 5 μM; also radioactive fi", "setting": "[5]", "result": "overlap of kinases targeted by C36 that have been identified via both assays (namely PIM1, TRKA, PDGFRA, MKNK1, MKNK2)"},
      {"measurement": "KINOMEscan active site-directed competition binding at 5 μM; also radioactive fi", "setting": "[6]", "result": "overlap of kinases targeted by C36 that have been identified via both assays (namely PIM1, TRKA, PDGFRA, MKNK1, MKNK2)"}
    ]}
  ]
}
